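Growth conditions: 96-well plates. Treatment: test compound, 48 hours, 5 concentrations. Analysis: linear interpolation between bracketing concentrations; unreached endpoints set to highest concentration. TGI denotes the concentration required for complete inhibition of growth.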
Assays:
Test in all cases: NCI tumour cell line growth inhibition, 48 h
[1] = system: UO-31 renal
[2] = system: SR leukemia
[3] = system: UACC-62 melanoma
[4] = system: OVCAR-5 ovarian
[5] = system: OVCAR-4 ovarian
[6] = system: HCT-116 colon
[7] = system: MOLT-4 leukemia
[8] = system: 786-0 renal
[9] = system: BT-549 breast
[10] = system: SK-MEL-5 melanoma
[11] = system: SNB-75 CNS
[12] = system: COLO 205 colon
[13] = system: NCI-H460 lung
[14] = system: NCI-H522 lung
[15] = system: U251 CNS
[16] = system: SK-MEL-28 melanoma
[17] = system: MDA-MB-435
[18] = system: NCI-H226 lung

CC(C)(C)c1ccc(-c2nc3ccccc3c(=O)o2)cc1 gave a TGI [1] of over 100 µM, a TGI [2] of 54.2 µM and a TGI [3] of over 100 µM. The TGI [4] was over 100 µM, the TGI [5] was over 100 µM and the TGI [6] was over 100 µM. For the same molecule, the TGI [7] was 47.8 µM, the TGI [8] was over 100 µM and the TGI [9] was 91 µM. For the same molecule, the TGI [10] was 38.2 µM, the TGI [11] was 95.2 µM and the TGI [12] was 78.7 µM. For the same molecule, the TGI [13] was over 100 µM, the TGI [14] was 69.6 µM and the TGI [15] was over 100 µM. The TGI [16] was over 100 µM and the TGI [17] was over 100 µM.

With Cc1c(C)c(S(=O)(=O)N(CCCCCN)OCCCN)c(C)c2c1OC(C)(C)CC2 the TGI [1] was 41.1 µM, the TGI [3] was 30.3 µM and the TGI [4] was over 55.2 µM. It also gave a TGI [5] of 13.3 µM, a TGI [6] of 30 µM and a TGI [7] of 48.5 µM. It also gave a TGI [8] of 29 µM, a TGI [9] of 29.8 µM and a TGI [10] of over 50.4 µM. The TGI [18] was 32.7 µM, the TGI [11] was 25.7 µM and the TGI [12] was over 74.8 µM. The TGI [13] was 19.7 µM, the TGI [14] was 13.3 µM and the TGI [15] was over 36.9 µM. It also gave a TGI [16] of 65.4 µM and a TGI [17] of 15.3 µM.

In the case of CCc1ccc(CCC(=O)O)nc1, the TGI [1] was over 100 µM, the TGI [2] was over 100 µM and the TGI [3] was over 100 µM. It also gave a TGI [4] of over 100 µM, a TGI [5] of over 100 µM and a TGI [6] of over 100 µM. The TGI [8] was over 100 µM, the TGI [9] was over 100 µM and the TGI [10] was over 100 µM. For the same molecule, the TGI [18] was over 100 µM, the TGI [11] was over 100 µM and the TGI [12] was over 100 µM. It also gave a TGI [13] of over 100 µM, a TGI [14] of over 100 µM and a TGI [15] of over 100 µM. For the same molecule, the TGI [16] was over 100 µM and the TGI [17] was over 100 µM.

COC(=O)c1cc(C)n2c1CS[C@@H]2c1ccccc1 showed a TGI [1] of over 100 µM, a TGI [2] of 54.6 µM and a TGI [4] of over 100 µM. For the same molecule, the TGI [5] was over 100 µM, the TGI [6] was over 100 µM and the TGI [7] was 71.1 µM. For the same molecule, the TGI [8] was over 100 µM, the TGI [9] was 82.8 µM and the TGI [10] was 44.3 µM. For the same molecule, the TGI [18] was 89.1 µM, the TGI [11] was 81.3 µM and the TGI [12] was 80 µM. It also gave a TGI [14] of 82 µM, a TGI [15] of over 100 µM and a TGI [16] of over 100 µM. For the same molecule, the TGI [17] was 79 µM.

O/N=C(\C=N\O)c1ccc2c(c1)Sc1ccccc1O2 showed a TGI [1] of 54 µM, a TGI [2] of 75.9 µM and a TGI [3] of 37.7 µM. For the same molecule, the TGI [4] was 87.5 µM, the TGI [5] was 74.2 µM and the TGI [6] was 45.7 µM. It also gave a TGI [7] of 32.7 µM, a TGI [8] of 38.6 µM and a TGI [9] of 40.7 µM. The TGI [18] was 69.6 µM, the TGI [11] was 50.3 µM and the TGI [12] was 54.3 µM. The TGI [13] was 60.5 µM, the TGI [14] was 8.17 µM and the TGI [15] was 98.7 µM. It also gave a TGI [16] of 75.3 µM and a TGI [17] of 33.9 µM.

With COc1cc(C2SCC(=O)N2c2ccc(-c3ccc(-n4c(-c5ccccc5)nc5ccccc5c4=O)cc3)cc2)ccc1O (stereo not drawn) the TGI [1] was over 100 µM, the TGI [3] was over 100 µM and the TGI [4] was over 100 µM. It also gave a TGI [5] of over 100 µM, a TGI [6] of over 100 µM and a TGI [7] of over 100 µM. The TGI [8] was over 100 µM, the TGI [9] was over 100 µM and the TGI [10] was over 100 µM. The TGI [18] was over 100 µM, the TGI [11] was 49.8 µM and the TGI [12] was over 100 µM. It also gave a TGI [13] of over 100 µM, a TGI [14] of over 100 µM and a TGI [15] of over 100 µM. For the same molecule, the TGI [16] was over 100 µM and the TGI [17] was over 100 µM.

For Cc1nc2c(O)cccc2c(=O)[nH]1, the TGI [1] was over 1000 µM, the TGI [2] was over 1000 µM and the TGI [3] was over 1000 µM. For the same molecule, the TGI [4] was over 1000 µM, the TGI [5] was over 1000 µM and the TGI [6] was over 1000 µM. The TGI [7] was over 1000 µM, the TGI [8] was over 1000 µM and the TGI [9] was 634 µM. The TGI [18] was over 1000 µM, the TGI [11] was over 1000 µM and the TGI [13] was over 1000 µM. The TGI [14] was over 1000 µM, the TGI [15] was over 1000 µM and the TGI [16] was over 1000 µM. The TGI [17] was over 1000 µM.

O=C(CC(=O)N(C(=O)c1ccccc1)c1ccc(Cl)cc1)N/N=C\c1ccccc1O gave a TGI [1] of over 100 µM, a TGI [2] of over 100 µM and a TGI [4] of over 100 µM. The TGI [5] was over 100 µM, the TGI [6] was over 100 µM and the TGI [7] was over 100 µM. For the same molecule, the TGI [8] was over 100 µM, the TGI [9] was over 100 µM and the TGI [10] was over 100 µM. For the same molecule, the TGI [18] was over 100 µM, the TGI [11] was 67.4 µM and the TGI [12] was over 100 µM. For the same molecule, the TGI [13] was over 100 µM, the TGI [14] was over 100 µM and the TGI [15] was over 100 µM. It also gave a TGI [16] of over 100 µM and a TGI [17] of over 100 µM.

CCOC(=O)C1(Cc2ccccc2)Cc2cc3c(cc2C1=O)CCC3 (stereo not drawn) showed a TGI [1] of over 100 µM, a TGI [2] of over 100 µM and a TGI [3] of over 100 µM. For the same molecule, the TGI [4] was over 100 µM, the TGI [5] was over 100 µM and the TGI [6] was over 100 µM. For the same molecule, the TGI [7] was over 100 µM, the TGI [8] was over 100 µM and the TGI [9] was over 100 µM. The TGI [10] was over 100 µM, the TGI [18] was over 100 µM and the TGI [11] was over 100 µM. It also gave a TGI [12] of over 100 µM, a TGI [13] of over 100 µM and a TGI [15] of over 100 µM. For the same molecule, the TGI [16] was over 100 µM and the TGI [17] was over 100 µM.

Cn1c(=O)cc(NNc2ccc(Br)cc2)[nH]c1=O gave a TGI [1] of 30 µM, a TGI [2] of over 100 µM and a TGI [4] of 26.2 µM. It also gave a TGI [5] of 30.3 µM, a TGI [6] of 29.3 µM and a TGI [8] of 21.4 µM. The TGI [9] was 30.6 µM, the TGI [10] was 30.2 µM and the TGI [18] was 39.1 µM. For the same molecule, the TGI [12] was 13.7 µM, the TGI [13] was 19.3 µM and the TGI [15] was 10 µM. For the same molecule, the TGI [16] was 34.7 µM and the TGI [17] was 25.3 µM.

COc1ccc(OC)c(C2CCCc3c2cnc2nc(N)nc(N)c32)c1 (stereo not drawn) gave a TGI [1] of over 100 µM, a TGI [2] of over 100 µM and a TGI [3] of over 100 µM. The TGI [5] was over 100 µM, the TGI [6] was over 100 µM and the TGI [7] was over 100 µM. For the same molecule, the TGI [8] was over 100 µM, the TGI [9] was over 100 µM and the TGI [10] was over 100 µM. For the same molecule, the TGI [18] was over 100 µM, the TGI [11] was 41 µM and the TGI [12] was over 100 µM. For the same molecule, the TGI [13] was over 100 µM, the TGI [14] was over 100 µM and the TGI [15] was over 100 µM. The TGI [16] was over 100 µM and the TGI [17] was over 100 µM.

With Cn1c(=O)oc2cc(C(=S)N3CCC(Cc4ccccc4)CC3)ccc21 the TGI [2] was over 100 µM, the TGI [3] was over 100 µM and the TGI [4] was over 100 µM. It also gave a TGI [6] of over 100 µM, a TGI [7] of over 100 µM and a TGI [8] of over 100 µM. The TGI [9] was over 100 µM, the TGI [10] was over 100 µM and the TGI [18] was over 100 µM. For the same molecule, the TGI [11] was over 100 µM, the TGI [12] was over 100 µM and the TGI [13] was over 100 µM. For the same molecule, the TGI [15] was over 100 µM, the TGI [16] was over 100 µM and the TGI [17] was over 100 µM.

Work on CCCCCCc1cc2cc(C(=O)Nc3ccccc3F)c(=N)oc2cc1O yielded a TGI [1] of 17.5 µM, a TGI [2] of 50.2 µM and a TGI [3] of 36.1 µM. The TGI [4] was 50.9 µM, the TGI [5] was 22.4 µM and the TGI [6] was 20.6 µM. For the same molecule, the TGI [7] was 90.5 µM, the TGI [8] was 24.9 µM and the TGI [9] was 23.2 µM. For the same molecule, the TGI [10] was 12.8 µM, the TGI [12] was 39.3 µM and the TGI [13] was 97.8 µM. It also gave a TGI [14] of 16.8 µM, a TGI [15] of 17.9 µM and a TGI [16] of 56.8 µM. It also gave a TGI [17] of 10.2 µM.
